The target of this experiment is T1, MloK1 (Mesorhizobium japonicum, UniProt Q98GN8).
T1 sequence (Q98GN8 1-355): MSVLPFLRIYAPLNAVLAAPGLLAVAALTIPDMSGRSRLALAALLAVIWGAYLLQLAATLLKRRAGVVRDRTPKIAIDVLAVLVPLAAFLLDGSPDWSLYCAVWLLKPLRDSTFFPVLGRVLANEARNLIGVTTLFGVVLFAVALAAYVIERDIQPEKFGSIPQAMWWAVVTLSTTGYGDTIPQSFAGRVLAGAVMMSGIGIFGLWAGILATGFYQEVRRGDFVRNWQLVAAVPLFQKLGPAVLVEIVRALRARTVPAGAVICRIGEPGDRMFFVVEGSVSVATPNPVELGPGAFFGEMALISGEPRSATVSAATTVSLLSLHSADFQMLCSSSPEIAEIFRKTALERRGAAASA
The experiment is described as follows: […]+ uptake into MloK1-reconstituted liposomes, dose-response. The experiment is classed as biochemical.

`Nc1nc2c(ncn2[C@@H]2O[C@@H]3COP(=O)(O)O[C@H]3[C@H]2O)c(=O)[nH]1` [cGMP] gave an EC50 of 600 nM.

Usually EC50 stands for the concentration needed to bring the measured effect to its halfway point. A high value points to lower potency in that assay.

The values above are taken from paper PMC2233883 (The Journal of General Physiology, 2004).
